One may read the melting point as the temperature of the solid-liquid transition.

Molecules are shown by their SMILES. Structures can show the parent of a compound that is named as a salt.

Consider `C[C@@]1(O)[C@H](O)[C@@H](COP2(=O)OCC[C@@H](c3ccccn3)O2)O[C@H]1n1cnc2c(N)ncnc21` (stereo partly drawn) (as salt: trifluoroacetic acid salt) [Compound 21.7, cis-5′-O-[4-(pyridin-2-yl)-2-oxo-1,3,2-dioxaphosphorinan-2-yl]-2′-C-beta-methyl-adenosine trifluoroacetic acid salt], for which the melting point fell in the range of 118 to 120 °C.
The result for `C[C@@]1(O)[C@H](O)[C@@H](COP2(=O)OCC[C@@H](c3ccc(S(C)(=O)=O)cc3)O2)O[C@H]1n1cnc2c(N)ncnc21` (stereo partly drawn) (as salt: trifluoroacetic acid salt) [Compound 21.8, cis-5′-O-[4-(4-methylsulfonylphenyl)-2-oxo-1,3,2-dioxaphosphorinan-2-yl]-2′-C-beta-methyl-adenosine trifluoroacetic acid salt] reads 185 to 187 °C; that for `C[C@@]1(O)[C@H](O)[C@@H](COP2(=O)OCC[C@H](c3cc(F)ccc3F)O2)O[C@H]1n1ccc2c(N)ncnc21` (stereo partly drawn) [Compound 16.2, 4-amino-7-(cis-5′-O-[4-(2,5-difluorophenyl)-2-oxo-1,3,2-dioxaphosphorinan-2-yl]-2-C-methyl-beta-D-ribofuranosyl)-7H-pyrrolo[2,3-d]pyrimidine], 145 to 148 °C.
The result for `C[C@@]1(O)[C@H](O)[C@@H](COP2(=O)OCC[C@H](c3ccc(F)c(Cl)c3)O2)O[C@H]1n1ccc2c(N)ncnc21` (stereo partly drawn) [Compound 16.3, 4-amino-7-(cis-5′-O-[4-(3-chloro-4-fluorophenyl)-2-oxo-1,3,2-dioxaphosphorinan-2-yl]-2′-C-methyl-beta-D-ribofuranosyl)-7H-pyrrolo[2,3-d]pyrimidine] reads 128 to 130 °C.
The result for `CC1(C)C[C@H](c2ccccc2)OP(=O)(OC[C@H]2O[C@@H](n3ccc4c(N)ncnc43)[C@](C)(O)[C@@H]2O)O1` (stereo partly drawn) [Compound 16.4, 4-amino-7-(cis-5′-O-[6,6-dimethyl-4-phenyl-2-oxo-1,3,2-dioxaphosphorinan-2-yl]-2′-C-methyl-beta-D-ribofuranosyl)-7H-pyrrolo[2,3-d]pyrimidine] reads 140 to 142 °C; that for `C[C@@]1(O)[C@H](O)[C@@H](CO[P@@]2(=O)OCC[C@@H](c3cccc(Cl)c3)O2)O[C@H]1n1ccc2c(N)ncnc21` [Compound 16.5, 4-amino-7-(cis-5′-[4-(S)-(3-chlorophenyl)-2-oxo-1,3,2-dioxaphosphorinan-2-yl]-2′-C-methyl-beta-D-ribofuranosyl)-7H-pyrrolo[2,3-d]pyrimidine], 135 to 138 °C.
On to `C[C@@]1(O)[C@H](O)[C@@H](CO[P@@]2(=O)OCC[C@@H](c3ccncc3)O2)O[C@H]1n1ccc2c(N)ncnc21` [Compound 16.7], for which the melting point lay within 183 to 185 °C.
On to `C[C@@]1(O)[C@H](O)[C@@H](COP2(=O)OCC[C@@H](c3ccccc3Br)O2)O[C@H]1n1ccc2c(N)ncnc21` (stereo partly drawn) [Compound 16.10, 4-amino-7-(cis-5′-O-[4-(2-bromophenyl)-2-oxo-1,3,2-dioxaphosphorinan-2-yl]-2′-C-methyl-beta-D-ribofuranosyl)-7H-pyrrolo[2,3-d]pyrimidine], for which the melting point lay within 132 to 135 °C.
The result for `C[C@@]1(O)[C@H](O)[C@@H](COP2(=O)OCC[C@@H](c3cncc(Br)c3)O2)O[C@H]1n1ccc2c(N)ncnc21` (stereo partly drawn) [Compound 16.11, 4-amino-7-(cis-5′-O-[4-(5-bromopyridin-3-yl)-2-oxo-1,3,2-dioxaphosphorinan-2-yl]-2′-C-methyl-beta-D-ribofuranosyl)-7H-pyrrolo[2,3-d]pyrimidine] reads 132 to 135 °C; that for `C[C@@]1(O)[C@H](O)[C@@H](CO[P@@]2(=O)OCC[C@@H](c3ccccc3)O2)O[C@H]1n1ccc2c(N)ncnc21` [Compound 16.12, 4-amino-7-(cis-5′-O-[4-(S)-phenyl-2-oxo-1,3,2-dioxaphosphorinan-2-y]-2′-C-methyl-beta-D-ribofuranosyl)-7H-pyrrolo[2,3-d]pyrimidine], 115 to 118 °C.

The values are drawn from patent publication US20050182252A1, “Novel 2'-C-methyl nucleoside derivatives” (priority 2004, published 2005).
